What was measured:
γD crystallin = biological target: T1, γD crystallin (Homo sapiens, UniProt P07320); assay: γD crystallin Thioflavin T fluorescence (fibrillization); type: biochemical; conditions: 1:1 γD crystallin:peptide; for Δfluorescence (γD crystallin): Thioflavin T, 50° C., 72 hours
T1 sequence (P07320 2-174): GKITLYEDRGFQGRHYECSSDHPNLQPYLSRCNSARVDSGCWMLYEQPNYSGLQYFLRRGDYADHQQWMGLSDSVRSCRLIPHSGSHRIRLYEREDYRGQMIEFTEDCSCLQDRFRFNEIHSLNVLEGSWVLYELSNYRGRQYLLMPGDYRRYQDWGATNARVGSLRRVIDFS
Protocol: γD crystallin Thioflaviin T fluorescence. γD crystallin fibrils were formed in a similar way to that of γ crystalline. Meehan et al., J Biol Chem 279: 3413-3419, 2004. Peptides were dissolved to 9.1 mM in TFE and diluted to 0.91 mM stock solutions in 10% TFE, pH 2.0. 3.5 mg of Thioflavin T was dissolved in 100 μl of 50 mM Glycine pH 8.5. A stock solution of 1 mg/ml (0.22 mM) Aβ was prepared. 20 μl Aβ, 5 μl chaperone, 2 μl Thioflavin T was mixed with 73 μl 10% TFE, pH 2.0. Fluorescence was read using a Beckman Coultier DTX 880 multimode detector. Samples were heated at 50° C. for 72 hours and fluorescence was read again.
The fibrillization of γD crystallin was measured as fluorescence of the fluorescent dye Thioflavin T from solutions containing 1:1 monomeric molar ratio of γD crystallin:peptide. In the absence of fibrils Thioflavin T had little or no fluorescence. The fluorescence of the Thioflavin T bound to γD crystallin fibrils in the absence of any other molecule after 72 hrs was set to 100%. […] Fibril formation=ΔfluorescenceγD crystallin (with chaperone)*100/ΔfluorescenceγD crystallin (without chaperone).

βL crystallin = assay: Chaperone assay, thermal aggregation of βL crystallin; type: biochemical; conditions: 1:10 target protein:peptide; light scattering 340 nm
Protocol: Chaperone Assays. Chaperone assays of the five peptides were performed using previously established methods with minor modifications. Muchowski et al., J Mol Biol 289: 397-411, 1999. A 1:1 monomeric molar ratio of chaperone:target protein was determined to be the optimum ratio and all subsequent chaperone assays of the β3 mutants were performed in triplicate and at a 1:1 monomeric molar ratio of chaperone:target protein in a 96-well ELISA micro-titer plate. […] of the chaperone and βL crystallin were mixed in a total volume of 200 μl buffer (5 mM PBS, pH 7.0). Light scattering at λ=340 nm was measured using a Multiskan MCC/340 plate reader before heating (time=0). After the first reading, the plate was heated at 50° C. and readings were taken at fifteen minute intervals for one hour.
The ability of the peptides to suppress the thermal aggregation of βL crystallin was measured spectrophotometrically as light scattering at λ=340 nm from solutions containing 1:10 monomeric molar ratio of target protein:peptide.

bovine βH crystallin = assay: αB crystallin protein pin array with βH crystallin; type: binding; conditions: unheated βH crystallin, 23° C.; similar maxima pre-heated 45° C.
Source text: Synthesis of Pins, binding and detection of peptides binding to ligand proteins. The αB crystallin protein pin array was used to measure the interaction between peptides and chaperone target proteins including bovine βH crystallin, human γD crystallin, equine alcohol dehydrogenase (ADH) and porcine citrate synthase (CS) as described (FIG. 12). Ghosh and Clark, Protein Sci 14: 684-95, 2005.
Refer to the methods section for detailed protocols. The absorbance corresponding to the blue coloration in each well was measured at λ=450 nm and plotted against the amino acid sequence of the corresponding peptide in that well (FIGS. 13 and 14). Wells containing peptides that have strong interactions with target proteins are dark blue and wells containing peptides that have weak or no interaction with target proteins are light blue or clear.
The purity of the target proteins used in the pin array assays, bovine βH crystallin, human γD crystallin, equine alcohol dehydrogenase (ADH) and porcine citrate synthase (CS) were determined to be >90% by SDS-PAGE. In addition, primary antibodies for each target protein were specific to that target protein and consequently contaminating proteins that may bind to the peptides will not be detected. Eighty-four sequential and overlapping peptide fragments corresponding to residues 1-175 of human αB crystallin were synthesized employing a simultaneous peptide synthesis strategy developed by Geysen, called Multipin Peptide Synthesis (Mimotopes, San Diego, Calif.). Geysen, Southeast Asian J Trop Med Public Health 21: 523-33, 1990; Chin et al., J Org Chem 62: 538-539, 1997. Peptides were immobilized on derivatized polyethylene pins arranged in a microtiter ELISA plate format. Each peptide was eight amino acids in length and consecutive peptides were offset by two amino acids. All peptides were bound covalently to the surface of the plastic pins. The first peptide was 1MDIAIHHP8 and the last peptide was 168PAVTAAPK175 for human αB crystallin.
Ghosh and Clark, Protein Sci 14: 684-95, 2005. […] The intensity of the blue color in the wells was measured at 450 nm using an ELISA plate-reader (BioTek, Winooski, Vt.). The intensity of the blue color (plotted on the X-axis) was a measure of the interaction between αB crystallin peptides (plotted on the Y-axis) and target proteins. To measure the effect of temperature on the interactions between interactive peptides and the target proteins, the target proteins were heated in a water-bath at 45° C. for fifteen minutes prior to use. Pin arrays are unable to differentiate between monomers, dimers or oligomers of target proteins that exist in solution. Instead, pin arrays are very sensitive detectors of interactions between individual peptides and the entire population (monomers, dimers or oligomers) of specific target proteins that may exist in solution under specific conditions. Each target protein was assayed two to five times. A single pin array was used for all experiments and no change in interactions was observed after more than thirty repetitions. The last three peptides of the protein pin array, 163REEKPAVT170, 165EKPAVTAA172, 167PAVTAAPK174, correspond to the epitope (163REEKPAVTAAPKK175) recognized by the primary antibody for human αB crystallin. A positive reaction is observed for these three peptides in the absence of human αB crystallin as the ligand due to direct binding of the anti-human αB crystallin antibody to these three peptides. The loss of efficiency for the pin array was measured using this assay. The loss of efficiency for the pin array was determined to be <5% by after more than 30 assays.
Protein pin arrays enabled the identification of interactive sequences necessary for the chaperone activity of human αB crystallin. Interactions between immobilized 8-mer human αB crystallin peptides and unheated and pre-heated βH crystallin, a natural protein constitute of lens cells, were measured as absorbances at λ=450 nm at 23° C. […]

Sequence	Δfluorescence (γD crystallin) (γD crystallin)	effect on the thermal aggregation of βL crystallin (ranking) (βL crystallin)	absorbance at 450 nm, interaction with βH crystallin (bovine βH crystallin)	effect on the fibrillization of γD crystallin (ranking) (γD crystallin; 72 hrs)
DRFSVNLDVKHFS	661,038,176	identical and slightly lower than the HG peptide	–	–
ERTIPITRE	611,017,728	identical and slightly lower than the HG peptide	–	–
FSVNLDVK [Peptide 38]	–	–	Maximum absorbances	–
HGKHEERQDE	734,394,240	strongest effect	–	–
LTITSSLS [Peptide 66]	–	–	Maximum absorbances	–
LTITSSLSSDGV	675,352,992	identical and slightly lower than the HG peptide	–	–
STSLSPFYLRPPSFLRAP	606,290,176	weakest effect	–	strongest effect
WIRRPFFP [Peptide 5]	–	–	Maximum absorbances	–

Reference: patent US20070185028A1, “Compositions and methods for treatment of protein misfolding and protein aggregation diseases” (priority 2004, published 2007)
